“Also recorded” adds a separate entry of the source. Structures can show the parent of a compound that is named as a salt.
Experiments:
[1] = system: androgen-independent prostate cancer; settings: several previous clinical trials; cited from earlier work
[2] = system: androgen-independent prostate cancer; assay: Treatment of male patients with androgen-independent prostate cancer (Example 1); type: in vivo, human
Method: Three male patients were selected for treatment on the basis of established diagnosis with prostate cancer. All three patients had failed standard androgen withdrawal therapy. Average prostate-specific antigen (“PSA”) levels for each patient at the beginning of treatment was about 20-30 ng/ml. Hormone ablative therapy, in some cases aggressively administered as long as 36 months, had failed, manifested by a continued rise in PSA levels in each patient. […] Each patient continued to receive luteinizing hormone-releasing hormone (“LHRH”)-agonist therapy, despite tumor growth in its presence. This is considered standard therapy, as tumor growth is likely to be more aggressive if testosterone levels were allowed to return to normal in these patients.

[3] = system: human prostate tumor cells (CWR22R); assay: Inhibition of tumor growth in androgen-independent xenograft model (CWR22R); type: in vivo, nude mice; settings: 0.85 mg/kg daily s.c., after 30 days
From the text: The inventor used an androgen-independent xenograft model of human prostate tumor cells (CWR22R) to raise tumors in male and female nude mice. Tumors developed over a period of 2-3 weeks into palpable masses. 10 mice were randomly assigned to a treatment group and 10 mice were assigned to a control group. […] Mice in the control group received an injection of saline solution. After 30 days, tumors from surviving mice were surgically removed and visibly examined. Tumor size was reduced by 60% in mice from the treated group as compared to mice from the control group and female hosts.

[4] = system: androgen-independent prostate cancer (AIPC); assay: Clinical study of raloxifene in androgen-independent prostate cancer: response and survival; type: in vivo, human
From the text: Between August 2001 and July 2002, twenty-one patients were enrolled into the study at the Prostate Cancer Center of Cedars-Sinai Medical Center in Los Angeles, Calif. Patients who were eligible for the study were men who had histologically confirmed adenocarcinoma of the prostate and confirmed disease progression after hormonal therapy. Patients were required to have progression of disease as evidenced by CT scan or rising PSA on two successive measurements after discontinuation of anti-androgen therapy. In addition, patients receiving androgen receptor-blocking agents as their last form of therapy had to have confirmed disease progression after drug withdrawal. Nonsurgically castrated patients continued to receive LHRH agonist while on study to maintain castrate levels of serum testosterone.
Both patients with measurable disease by either bone scan or CT scan, and evaluable disease evidenced by rising PSA were included in the study. Patients whose only evidence of disease progression was rising PSA had to have an increasing PSA on any two determinations drawn at two least weeks apart, with a greater than 20% increase from the baseline value. Other eligibility criteria included: Karnofsky performance status >70%, life expectancy >12 weeks (with at least four weeks since major surgery or radiation therapy), and at least 12 weeks for treatment with strontium-89, rhenium, or samarium-153. […] Patients with a history of uncontrolled or severe cardiovascular disease (e.g., inadequately uncontrolled hypertension, congestive heart failure, angina, or myocardial infarction within the previous year), a history of thromboembolism, a history of biliary colic or untreated cholethiasis were excluded. Patients with brain metastasis, clinical signs of brain involvement or leptomeningeal disease, dementia, psychoses, or other significant impairment of mental status were excluded. Patients with a history of another malignancy during the past five years (other than non-melanomatous skin cancer or in situ stage T1a bladder cancer), patients with active infections requiring antibiotics, or patients on concurrent commercial or investigational antineoplastic therapies were excluded. No concomitant use of prostata or saw palmetto was permitted.
(§1) Response to therapy was assessed after the first two months of therapy and then monthly thereafter. Toxicity was assessed monthly at each study visit. […] A partial response (“PR”) required a decrease by >50% of the sum of the products of the perpendicular diameters for all measurable lesions lasting at least one month, no appearance of new lesions, and a reduction in serum PSA by >50% on two consecutive occasions at least one month apart. For patients being evaluated by bone metastases, a PR required a reduction in serum PSA by >50% on two consecutive occasions at least one month apart an improvement in bone scan (reduction in intensity or size of one or more metastatic foci and no new foci of radionuclide uptake unless due to […] healing documented on plain radiograph, CT scan, or MRI scan). During this time there should have been no cancer-associated deterioration in weight, performance status, or symptoms. Progressive disease (“PD”) was defined by any of the following: (1) increase >25% in the sum of the products of the perpendicular diameters of bidimensionally measurable lesions in the sum of the transverse diameters of unidimensionally measurable lesions, (2) the appearance of new lesions, and (3) by the increase in serum PSA >50% over baseline as documented on two successive measurements >28 days apart. […] For PD to be scored by PSA criteria alone, a confirmatory PSA determination was required and obtained two weeks after the value representing a >50% increase. Patients who had improvement in one objective parameter while meeting the criteria for PD by another parameter were scored as having PD.
Treatment was administered with monthly lab draws and follow-up visits with the physician. […]

MSKPC9 tumor xenografts = assay: Growth of androgen independent MSKPC9 tumor xenografts; type: in vivo, nude athymic BALB/c male mice; settings: 40 mg/kg 5x/wk p.o., orchiectomized mice
Method: Xenograft studies were performed as described in D. B. Agus et al., “Response of prostate cancer to anti-Her-2/neu antibody in androgen-dependent and -independent human xenograft models,” Cancer Res. 59(19):4761-4764 (1999). Orchiectomized seven- to eight-week-old nude athymic BALB/c male mice were obtained from the National Cancer Institute and maintained in pathogen-free conditions. Mice were inoculated subcutaneously (“s.c.”) with minced tumor tissue together with […] reconstituted basement membrane (available from BD Biosciences Discovery Labware; Bedford, Mass.) from the established androgen independent (“AI”) MSKPC9 xenograft cell lines; cell lines are described in M. Nagabhushan et al., “CWR22: the first human prostate cancer xenograft with strongly androgen-dependent and relapsed strains both in vivo and in soft agar,” Cancer Res. 56(13):3042-3046 (1996), and D. B. Agus et al., “Prostate cancer cell cycle regulators: response to androgen withdrawal and development of androgen independence,” J. Natl. Cancer Inst. 91(21):1869-76 (1999).
Tumors were measured twice weekly with vernier calipers, and tumor volumes were calculated by the formula (π/6)×(larger diameter)×(smaller diameter)^2, described in M. F. Press et al., “HER-2/neu gene amplification characterized by fluorescence in situ hybridization: poor prognosis in node-negative breast carcinomas,” J. Clin Oncol. […]

PSA = PSA levels in animals with MSKPC9 xenografts (enzymatic immunoassay); type: in vivo, nude athymic BALB/c male mice
Method: Levels of PSA in the blood of implanted animals were determined using an enzymatic immunoassay kit (obtained from American Qualex; San Clemente, Calif.). Blood samples were obtained prior to treatment by a small incision in the dorsal tail vein to collect 50 μl of blood using a serum-separator tube, or via a cardiac draw at sacrifice.

ER-β mRNA = assay: Real-time RT-PCR of MSKPC9 xenograft tumors, ER-β mRNA; type: in vivo; settings: MSKPC9 tumor xenografts, treated vs control
Method: Total RNA was extracted from prostate tumors using TRIZOL reagent (available from Invitrogen Corporation; Carlsbad, Calif.). DNase I (obtained from Ambion, Inc.; Austin, Tex.) was used to rid the samples of any extraneous DNA that might interfere with the reaction. The yield was quantified spectrophotometrically. Total RNA was reverse-transcribed into cDNA and PCR was performed in the same reaction by using TAQMAN One-Step RT-PCR Master Mix Reagents Kit (obtained from Applied Biosystems; Foster City, Calif.; hereinafter “Applied Biosystems”). Probes were labeled with 6-FAM on the 5′ end and TAMRA on the 3′ end. β-actin was used as the endogenous control and normalizer. The primer pairs used are depicted in Table 1, as follows:
The PCR cycling conditions were performed for all of the samples as follows: 30 minutes at 48° C. for RT step; 10 minutes at 95° C. for […] GOLD Activation (available from Applied Biosystems); and 40 cycles for the melting (95° C., 15 seconds), and annealing/elongation (60° C. for one minute) steps. PCR reactions for each template were done in triplicate using 1 μg of total mRNA per sample. Each gene-specific primer pair was tested on standard 384-well plates. […]
The comparative Ct method (PE Applied Biosystems) was used to determine relative quantification of gene expression for each gene compared with the β-actin control. […]

[5] = Clinical study of raloxifene: toxicity (NCI Common Toxicity Criteria, v2.0); type: in vivo, human
Method: as §1
Treatment was administered with monthly lab draws and follow-up visits with the physician. […] Patients received 1 mg oral COUMADIN daily (or 0.5 mg oral COUMADIN daily if patients were already taking aspirin).
The reported urinary tract infection (“UTI”) (1) and hematuria (1) were thought to be related to the patient's underlying disease. Two grade 3 events were reported: a grade 3 arthralgia/myalgia thought to be related to the patient's recent injury, and a grade 3 elevated creatinine that was attributed to the patient's disease progression.

[6] = EVISTA package insert; cited from earlier work

CC/C(=C(\c1ccccc1)c1ccc(OCCN(C)C)cc1)c1ccccc1 [tamoxifen]
effect on androgen-independent prostate cancer [1]: no effect

O=C(c1ccc(OCCN2CCCCC2)cc1)c1c(-c2ccc(O)cc2)sc2cc(O)ccc12 [raloxifene HCl, Raloxifene hydrochloride]
bone scan of the longest treated patient ([2]; 17 months since beginning therapy): improvement in their bone scan | continued PSA of the longest treated patient ([2]; 17 months since beginning therapy, 60 mg/day orally): < 0.4 ng/mL | decline of PSA levels ([2]; three patients, 60 mg orally once a day for a minimum of 30 days, continued LHRH-agonist therapy): > 50% | reduction of tumor size vs control group [3]: 60%

O=C(c1ccc(OCCN2CCCCC2)cc1)c1c(-c2ccc(O)cc2)sc2cc(O)ccc12 [raloxifene]
tumor stabilization (non-progression), leveling off of rising serum PSA ([2]; majority of patients treated): tumor stabilization occurred | improvement in soft tissue or bone disease ([4]; 60 mg oral daily): No improvement in soft tissue or bone disease was observed | median time to disease progression ([4]; 60 mg oral daily): 8.3 weeks | patients with progressive disease at the first evaluation time point ([4]; 60 mg oral daily): thirteen of the eighteen | patients with stable disease at the first evaluation time point ([4]; 60 mg oral daily): five of eighteen | time to disease progression, range ([4]; 60 mg oral daily): 2.9-24.71 weeks | progression of soft tissue or osseous disease ([4]; 60 mg oral daily, first evaluation time point): No progression of soft tissue or osseous disease was observed | patients alive ([4]; as of July, 2003, 19 of 21): 90% | median survival ([4]; at time of analysis (November, 2002)): 10.5 months | patients discontinued due to progressive disease (rising PSA) at the second evaluation point ([4]; of the five patients with stable disease): four | mean tumor volume vs control group (FIG. 1A) (MSKPC9 tumor xenografts): reduction in mean tumor volume; also recorded: tumors were smaller | mean tumor weight vs control group (FIG. 1B) (MSKPC9 tumor xenografts): reduction in mean tumor weight | PSA (per tumor volume) (FIG. 3) (PSA; MSKPC9 tumor xenografts, raloxifene treatment): increasing | levels of PSA in the blood of implanted animals (FIG. 3) (PSA; MSKPC9 xenograft animals treated with raloxifene): rising PSA levels | ER-β mRNA, difference between treatment groups (ER-β mRNA): no difference | severity of most drug related toxicities reported ([5]; 60 mg oral daily): mild (grade 1-2) | tolerability ([5]; 60 mg oral daily, with low dose COUMADIN): well tolerated | Patients experiencing drug-related toxicity: Anemia ([5]; Grade 1): 2 patients | Patients experiencing drug-related toxicity: Arthralgia/Myalgia ([5]; Grade 1): 2 patients | Patients experiencing drug-related toxicity: Bicarbonate ([5]; Grade 1): 1 patients | Patients experiencing drug-related toxicity: Bone Pain ([5]; Grade 1): 1 patients | Patients experiencing drug-related toxicity: Diarrhea ([5]; Grade 1): 1 patients | Patients experiencing drug-related toxicity: Edema ([5]; Grade 1): 1 patients | Patients experiencing drug-related toxicity: Fatigue/Malaise ([5]; Grade 1): 1 patients | Patients experiencing drug-related toxicity: Hematuria ([5]; Grade 1): 1 patients | Patients experiencing drug-related toxicity: Hot flashes ([5]; Grade 1): 2 patients | Patients experiencing drug-related toxicity: Hypercholesterolemia ([5]; Grade 1): 2 patients | Patients experiencing drug-related toxicity: Hyperglycemia ([5]; Grade 1): 1 patients | Patients experiencing drug-related toxicity: Hypoalbuminemia ([5]; Grade 1): 2 patients | Patients experiencing drug-related toxicity: Hypoglycemia ([5]; Grade 1): 1 patients | Patients experiencing drug-related toxicity: Increased Alkaline Phosphatase ([5]; Grade 1): 3 patients | Patients experiencing drug-related toxicity: Increased Creatinine ([5]; Grade 1): 1 patients | Patients experiencing drug-related toxicity: Increased SGOT (AST) ([5]; Grade 1): 1 patients | Patients experiencing drug-related toxicity: Nausea/Vomiting ([5]; Grade 1): 1 patients | Patients experiencing drug-related toxicity: Rash ([5]; Grade 1): 1 patients | Patients experiencing drug-related toxicity: UTI ([5]; Grade 1): 1 patients | Patients experiencing drug-related toxicity: Anemia ([5]; Grade 2): 1 patients | Patients experiencing drug-related toxicity: Bone Pain ([5]; Grade 2): 1 patients | Patients experiencing drug-related toxicity: Constipation ([5]; Grade 2): 2 patients | Patients experiencing drug-related toxicity: Fatigue/Malaise ([5]; Grade 2): 1 patients | Patients experiencing drug-related toxicity: Hypertriglyceridemia ([5]; Grade 2): 1 patients | Patients experiencing drug-related toxicity: Hypotension ([5]; Grade 2): 1 patients | Patients experiencing drug-related toxicity: Nausea/Vomiting ([5]; Grade 2): 1 patients | Patients experiencing drug-related toxicity: Arthralgia/Myalgia ([5]; Grade 3): 1 patients | Patients experiencing drug-related toxicity: Hyperglycemia ([5]; Grade 3): 1 patients | Patients experiencing drug-related toxicity: Increased Creatinine ([5]; Grade 3): 1 patients | tolerability in previous clinical studies [6]: well tolerated

Reference: patent US7425565B2, “Use of benzothiopenes to treat and prevent prostate cancer” (Cedars-Sinai Medical Center, priority 2002, dated 2008)
